Measurements taken from PMC8308836, “Albumin Nanoparticle Formulation for Heart-Targeted Drug Delivery: In Vivo Assessment of Congestive Heart Failure” (Pharmaceuticals, 2021).
Read-outs that look alike come from different tables or passages of the source.

Experiments:
[1] = tested on: IL-6; assay: Serum cytokine measurement by ELISA: IL-6; assay type: in vivo, female Lewis rats; conditions: 1-week post treatment; i.v. injection, CHF rats, mean ± SD (n = 5)
Procedure: (§1) The cytokine analysis for levels of IL-6, IL-10, and tumor necrosis factor-alpha (TNF-α) was performed using commercially available ELISA kits (Abcam) according to the manufacturer’s instructions. Microtiter plates were precoated with a murine monoclonal antibody against the rat cytokine being measured. Standards of the analyte and serum samples were added in triplicate. The absorbance was read at 450 nm within 30 min of stopping the reaction and standard curves were plotted.

[2] = tested on: IL-10; assay: Serum cytokine measurement by ELISA: IL-10; assay type: in vivo, female Lewis rats; conditions: 1-week post treatment; i.v. injection, CHF rats, mean ± SD (n = 5)
Procedure: as §1

[3] = 2 h time point; i.v., MRN dose 50 μg/kg, rat, mean ± SD (n = 4)
Procedure: The animals were randomized into three groups in a blinded manner. Group I (n = 6) was intravenously injected with 1 c.c. saline. […] Group III (n = 12) was intravenously injected with 250 μL of MRN Lactate containing 50 μg/kg MRN. Blood was collected from the jugular vein at the following timepoints: 0, 5, 15, 30, 45, 60, 120, and 360 min. The animals were euthanized by isoflurane/CO2. Organ tissues (heart, lungs, liver, and kidneys) were collected, washed, rinsed, and snap-frozen in liquid nitrogen.

[4] = tested on: rat model of congestive heart failure
Procedure: Briefly, rats were anesthetized using 5% isoflurane, intubated, and mechanically ventilated at 80 breaths/minute. […] About 48 h after ligation of the artery, injections were performed using a 27-G needle. […] Group 3 (n = 8) received 250 μL bolus intravenous injection of 50 μg/kg MRN Lactate [39, 40]. […] Various endpoint measurements were taken as described in subsequent paragraphs.
Echocardiographic examinations were performed under inhaled isoflurane anesthesia (2.5% in oxygen, 500–700 mL/min). Transthoracic echocardiography was performed for each rat as a baseline before the surgery, 48 h post surgery, 60 min post injection, 24 h post injection, 48 h post injection, and 1-week post injection. Echocardiograms were obtained with a commercially available system (Micromaxx P04224; SonoSite, Bothell, WA, USA), equipped with a linear probe 7–13 MHz 25 mm footprint turbo transducer (P06519.11; SonoSite). Briefly, LV end-diastolic diameters (LVEDD) and end-systolic diameters (LVESD) were measured with M-mode tracings between the anterior and posterior walls from the parasternal short-axis view just below the level of the papillary muscles of the mitral valve [13]. The time of end-diastole was defined as time of maximum diameter of the LV in one heart cycle. Accordingly, end-systole was defined as the minimum diameter. Following the American Society of Echocardiology leading-edge method, two images on average were obtained in each view and averaged over three consecutive cycles [41]. The left-ventricular end-diastolic volume (LVEDV) and left-ventricular end-systolic volume (LVESV) were measured using the Teichholz formula [13].

[5] = 24 h post treatment; i.v. injection 50 μg/kg, CHF rats, mean ± SD (n = 3)
Procedure: The surgery was performed in a blinded manner as previously mentioned [22, 38]. Briefly, rats were anesthetized using 5% isoflurane, intubated, and mechanically ventilated at 80 breaths/minute. Via a left thoracotomy (through the fourth intercostal space), the LAD coronary artery was permanently ligated 2 mm from its origin with a 7/0 polypropylene suture (Ethicon Inc., Somerville, NJ, USA). […] About 48 h after ligation of the artery, injections were performed using a 27-G needle. Rats were randomized into five groups: Group 1 (n = 5) received an intravenous injection of 1 c.c. saline (Control). […] Group 3 (n = 8) received 250 μL bolus intravenous injection of 50 μg/kg MRN Lactate [39, 40]. Group 4 (n = 5) received 250 μL intravenous injection of empty NPs in the same concentration as Group 1. […] Blood was collected 24 h post injection for milrinone quantification. […]
The milrinone in plasma samples was quantified using High Performance Liquid Chromatography (HPLC) LCMS-8060 (Shimadzu). […] All samples were reconstituted in 40 µL of mobile phase A and analyzed by LC-MS/MS. […] The gradient started at 95:5 A:B. Samples were quantified using the area under the curve (AUC) and a standard curve.

[6] = Pharmacokinetics of milrinone in plasma after i.v. injection; assay type: in vivo, female Lewis rats; conditions: MRN dose 50 μg/kg, rat
Excerpt: Amrinone was used as an internal standard.

[7] = tested on: rat model of congestive heart failure; assay: Serum safety and toxicity markers (liver and renal function); assay type: in vivo, female Lewis rats; conditions: CHF rats, i.v. injection; normal range 20–61 U/L
Procedure: Briefly, rats were anesthetized using 5% isoflurane, intubated, and mechanically ventilated at 80 breaths/minute. Via a left thoracotomy (through the fourth intercostal space), the LAD coronary artery was permanently ligated 2 mm from its origin with a 7/0 polypropylene suture (Ethicon Inc., Somerville, NJ, USA). […] About 48 h after ligation of the artery, injections were performed using a 27-G needle. Rats were randomized into five groups: Group 1 (n = 5) received an intravenous injection of 1 c.c. saline (Control). […] Group 4 (n = 5) received 250 μL intravenous injection of empty NPs in the same concentration as Group 1. […] Various endpoint measurements were taken as described in subsequent paragraphs. At 5 days post injection, all rats were killed by euthanasia.
Blood was collected via the jugular vein from the animals using a sterile 23 G/25 mm needle in the Microtainer® serum separator tubes (Becton Dickinson, Franklin Lakes, NJ, USA) for serum separation and in Plasma-EDTA tubes (Becton Dickinson, Franklin Lakes, NJ, USA) for plasma collection. The blood was allowed to clot at room temperature for 30 min and subsequently placed on ice until centrifugation. Serum was separated by low-speed centrifugation at 1500 rpm for 15 min at 4 °C and was frozen at −80 °C until analysis. […]

[8] = tested on: TNF-α; assay: Serum cytokine measurement by ELISA: TNF-α; assay type: in vivo, female Lewis rats; conditions: 1-week post treatment; i.v. injection, CHF rats, mean ± SD (n = 5)
Procedure: as §1

[9] = i.v. injection group, 48 h Post Ligation (before treatment)
[10] = i.v. injection group, Baseline—Pre-Ligation (before treatment)
[11] = i.v. injection, 50 μg/kg milrinone, 1-week Post Injection
[12] = i.v. injection, 50 μg/kg milrinone, 60 min Post Injection
[13] = i.v. injection, 50 μg/kg milrinone, 24 h Post Injection
[14] = i.v. injection, 50 μg/kg milrinone, 48 h Post Injection

With `CC(O)C(=O)O.Cc1[nH]c(=O)c(C#N)cc1-c1ccncc1` [MRN Lactate, milrinone lactate] as the compound, how does the “Serum IL-6 level” value [1] read?
The value was 39.3 ± 2.7 pg/mL.

What about the “Serum IL-10 level” value [2] of the same compound?
Its value is 146.1 ± 24.7 pg/mL.

And the “MRN detected in heart” value [3]?
The value was 2.00 ± 1.01 ng/mL.

What about the “MRN detected in kidneys” value [3] of the same compound?
The value was 4.80 ± 0.6 ng/mL.

And the “MRN detected in liver” value [3]?
Its value is 2.44 ± 0.23 ng/mL.

What about the “Left Ventricular Ejection Fraction (LVEF)” value [4, 9] of the same compound?
The value was 65.3 ± 2.3%.

And the “Left Ventricular Fractional Shortening (LVFS)” value [4, 9]?
The value was 34.3 ± 2.7%.

And the “Left Ventricular Ejection Fraction (LVEF)” value [4, 10]?
Its value is 88.2 ± 1.8%.

What about the “Left Ventricular Fractional Shortening (LVFS)” value [4, 10] of the same compound?
The value was 52.6 ± 2.7%.

And the “Left Ventricular Ejection Fraction (LVEF)” value [4, 11]?
The value was 66.1 ± 4.2%.

And the “Left Ventricular Fractional Shortening (LVFS)” value [4, 11]?
Its value is 30.8 ± 2.8%.

What about the “Left Ventricular Ejection Fraction (LVEF)” value [4, 12] of the same compound?
The value was 80.1 ± 3.3 %.

And the “Left Ventricular Fractional Shortening (LVFS)” value [4, 12]?
Its value is 45.6 ± 3.2 %.

And the “Left Ventricular Ejection Fraction (LVEF)” value [4, 13]?
The value was 70.6 ± 3.6%.

And the “Left Ventricular Fractional Shortening (LVFS)” value [4, 13]?
The value was 33.6 ± 3.9%.

What about the “Left Ventricular Ejection Fraction (LVEF)” value [4, 14] of the same compound?
The value was 64.8 ± 4.3%.

What about the “Left Ventricular Fractional Shortening (LVFS)” value [4, 14] of the same compound?
The value was 30.2 ± 3.9%.

What about the “milrinone detected in plasma” value [5] of the same compound?
The value was 0.3 ± 0.1 ng/mL.

What about the “milrinone concentration in plasma” value ([6]; 0 min) of the same compound?
Its value is 334.2 ng/mL.

And the “milrinone concentration in plasma” value ([6]; 5 min, mean ± SD (n = 4))?
Its value is 203.5 ± 45.3 ng/mL.

What about the “milrinone concentration in plasma” value ([6]; 15 min, mean ± SD (n = 4)) of the same compound?
The value was 75.4 ± 6.2 ng/mL.

And the “milrinone concentration in plasma” value ([6]; 30 min, mean ± SD (n = 4))?
Its value is 72.6 ± 12.4 ng/mL.

What about the “milrinone concentration in plasma” value ([6]; 45 min, mean ± SD (n = 4)) of the same compound?
Its value is 22.9 ± 11.2 ng/mL.

What about the “milrinone concentration in plasma” value ([6]; 120 min, mean ± SD (n = 4)) of the same compound?
The value was 4.1 ± 1.5 ng/mL.

And the “milrinone concentration in plasma” value ([6]; 360 min, mean ± SD (n = 4))?
Its value is 1.6 ± 0.1 ng/mL.

What about the AUC0-t ([6]; non-compartmental) of the same compound?
Its AUC0-t is 104.3 ng·h/mL.

What about the “AUC0-∞” value ([6]; non-compartmental) of the same compound?
Its value is 106.7 ng·h/mL.

And the “CL (clearance)” value ([6]; non-compartmental)?
Its value is 7.83 mL/min/kg.

And the “MRT (mean residence time)” value ([6]; non-compartmental)?
Its value is 49.1 min.

And the “Vss (apparent volume of distribution at steady state)” value ([6]; non-compartmental)?
The value was 0.38 L/kg.

What about the “Vz (apparent volume of distribution at elimination)” value ([6]; non-compartmental) of the same compound?
The value was 0.73 L/kg.

What about the “t1/2 (half-life of plasma)” value ([6]; non-compartmental) of the same compound?
Its value is 64.7 min.

What about the “Serum ALT level” value [7] of the same compound?
Its value is “within the normal range”.

What about the “Serum TNF-α level” value [8] of the same compound?
Its value is 17.1 ± 2.8 pg/mL.
